Assay results taken from ChEMBL document CHEMBL1177704, “Unexpected reaction of 2-alkylsulfanylimidazoles to imidazol-2-ones: pyridinylimidazol-2-ones as novel potent p38alpha mitogen-activated protein kinase inhibitors” (J Med Chem, 2010).

Assays:
Blood = assay: Antiinflammatory activity in human whole blood assessed as inhibition of LPS-stimulated TNFalpha release after 15 mins by ELISA; assay type: functional, tissue-based; conditions: 0.25 h
[1] = target: Mitogen-activated protein kinase 14 (Homo sapiens, UniProt Q16539); assay: Inhibition of p38alpha
Chain of Mitogen-activated protein kinase 14 (Q16539 whole entry): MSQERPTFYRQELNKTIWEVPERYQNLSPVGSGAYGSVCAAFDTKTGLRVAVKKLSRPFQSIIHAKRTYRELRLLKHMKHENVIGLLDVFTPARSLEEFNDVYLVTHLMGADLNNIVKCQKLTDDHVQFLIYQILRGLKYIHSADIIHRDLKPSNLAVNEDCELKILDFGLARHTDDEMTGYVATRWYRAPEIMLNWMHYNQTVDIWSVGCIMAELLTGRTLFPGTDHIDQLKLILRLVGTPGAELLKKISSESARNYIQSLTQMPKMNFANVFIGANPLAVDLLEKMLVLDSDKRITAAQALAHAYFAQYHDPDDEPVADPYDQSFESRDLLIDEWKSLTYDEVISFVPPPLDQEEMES

SMILES | IC50 (Blood) | IC50 [1]
O=c1[nH]c(-c2ccc(F)cc2)c(-c2ccnc(N[C@H]3CC[C@H](O)CC3)c2)[nH]1 | 2920 nM | 23 nM
O=c1[nH]c(-c2ccncc2)c(-c2ccc(F)cc2)[nH]1 |  | 468 nM
CC(C)[C@H](C)Nc1cc(-c2[nH]c(=O)[nH]c2-c2ccc(F)cc2)ccn1 | 381 nM | 49 nM
C[S+]([O-])c1ccc(-c2nc(-c3ccc(F)cc3)c(-c3ccncc3)[nH]2)cc1 (configuration not stated) [SB-203580] | 1760 nM | 
C[C@@H](Nc1cc(-c2[nH]c(=O)[nH]c2-c2ccc(F)cc2)ccn1)c1ccccc1 |  | 324 nM
